According to the supplement of paper PMC10307832:

What was measured:
Assay in all cases: relative viability (nuclei count vs DMSO), 5 days (fraction); higher = more cells survive
[1] = compound: CS(=O)(=O)c1ccc(-c2cnc(N)c(C(=O)Nc3ccccc3)n2)cc1 [VE-821] + CC(C)C[C@H](NC(=O)[C@H](Cc1ccccc1)NC(=O)c1cnccn1)B(O)O [Bortezomib] (partner 0.002 µM)
Method in brief: (§1)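 Lung cancer cell lines in 1536-well plates got either a single drug or a fixed anchor-drug dose together with five library-drug doses (not always all listed) in √10 steps, by pin tool, on the day after seeding. Nuclei were counted after 5 days, and relative viability is the treated-to-vehicle ratio of nuclei counts. Values are medians of duplicate plates.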

[2] = compound: CS(=O)(=O)c1ccc(C(=O)Nc2ccc(Cl)c(-c3ccccn3)c2)c(Cl)c1 [Vismodegib] + CC(C)C[C@H](NC(=O)[C@H](Cc1ccccc1)NC(=O)c1cnccn1)B(O)O [Bortezomib] (partner 0.002 µM)
Method in brief: as §1

[3] = compound: CS(=O)(=O)c1ccc(C(=O)Nc2ccc(Cl)c(-c3ccccn3)c2)c(Cl)c1 [Vismodegib] + C[C@@H](Oc1cc(-c2cnn(C3CCNCC3)c2)cnc1N)c1c(Cl)ccc(F)c1Cl [Crizotinib] (partner 1 µM)
Method in brief: as §1

[4] = compound: CS(=O)(=O)c1ccc(C(=O)Nc2ccc(Cl)c(-c3ccccn3)c2)c(Cl)c1 [Vismodegib] + Cc1nc(Nc2ncc(C(=O)Nc3c(C)cccc3Cl)s2)cc(N2CCN(CCO)CC2)n1 [Dasatinib] (partner 0.075 µM)
Method in brief: as §1

Cell Line | relative viability ([1]; first compound 0.08 µM) | relative viability ([1]; first compound 0.253 µM) | relative viability ([1]; first compound 0.8 µM) | relative viability ([1]; first compound 2.53 µM) | relative viability ([1]; first compound 8 µM) | relative viability ([2]; first compound 0.08 µM) | relative viability ([2]; first compound 0.253 µM) | relative viability ([2]; first compound 0.8 µM) | relative viability ([2]; first compound 2.53 µM) | relative viability ([2]; first compound 8 µM) | relative viability ([3]; first compound 0.08 µM) | relative viability ([3]; first compound 0.253 µM) | relative viability ([3]; first compound 0.8 µM) | relative viability ([3]; first compound 2.53 µM) | relative viability ([3]; first compound 8 µM) | relative viability ([4]; first compound 0.08 µM) | relative viability ([4]; first compound 0.253 µM) | relative viability ([4]; first compound 0.8 µM) | relative viability ([4]; first compound 2.53 µM) | relative viability ([4]; first compound 8 µM)
ChaGo-K-1 | 1 | 1.01 | 1.24 | 0.989 | 0.812 | 0.971 | 0.957 | 0.845 | 0.744 | 1.04 | 1.19 | 1.09 | 1.13 | 1.06 | 1.22 | 0.718 | 0.672 | 0.622 | 0.583 | 0.632
HCC-44 | 1 | 0.908 | 0.98 | 1.01 | 0.975 | 0.918 | 0.816 | 0.897 | 0.841 | 0.901 | 0.782 | 0.721 | 0.829 | 0.763 | 0.783 |  |  |  |  | 
NCI-H441 | 0.622 | 0.967 | 0.552 | 0.705 | 0.405 | 0.535 | 0.588 | 0.522 | 0.319 | 0.523 | 0.68 | 0.745 | 0.658 | 0.722 | 0.723 | 0.671 | 0.444 | 0.502 | 0.558 | 0.433
NCI-H1299 | 0.992 | 1 | 0.973 | 0.924 | 0.972 | 1.01 | 0.985 | 1.04 | 1.01 | 0.973 | 0.918 | 0.929 | 0.96 | 0.96 | 0.947 |  |  |  |  | 
LU99A | 1.11 | 1.23 | 1.16 | 1.08 | 0.514 | 1.12 | 1.13 | 1.25 | 1.09 | 1.15 | 0.664 | 0.49 | 0.575 | 0.491 | 0.624 | 0.401 | 0.507 | 0.546 | 0.509 | 0.708
NCI-H520 | 0.603 | 0.697 |  | 0.57 | 0.47 | 0.443 | 0.812 | 0.619 | 0.697 | 0.668 | 0.854 | 0.662 | 0.714 | 0.679 | 0.896 | 0.191 | 0.202 | 0.188 | 0.166 | 0.203
EPLC-272H | 0.955 | 0.927 | 1.12 | 1.13 | 0.814 | 0.988 | 0.783 | 0.864 | 1.14 | 0.723 | 0.899 | 0.849 | 0.856 | 0.867 | 1.04 | 0.362 | 0.367 | 0.397 | 0.327 | 0.312
PC-14 | 1.02 | 0.846 | 0.855 | 0.871 | 0.899 | 0.802 | 0.779 | 0.994 | 0.761 | 0.755 | 0.835 | 0.777 | 0.971 | 0.914 | 0.839 | 0.25 | 0.235 | 0.27 | 0.225 | 0.244
LCLC-103H | 1.12 | 0.938 | 1.01 | 1.06 | 1.09 | 1.05 | 1.03 | 1.07 | 0.99 | 0.983 | 0.871 | 1.04 | 0.955 | 1.02 | 1.04 | 0.579 | 0.517 | 0.471 | 0.4 | 0.458
COR-L 105 | 0.746 | 0.841 | 0.677 | 0.738 | 0.467 | 0.765 | 0.907 | 0.778 | 0.753 | 0.665 | 0.63 | 0.728 | 0.751 | 0.773 | 0.715 | 0.288 | 0.303 | 0.422 | 0.339 | 0.357
NCI-H2342 |  |  |  |  |  |  |  |  |  |  |  |  |  |  |  | 0.313 | 0.316 | 0.298 | 0.344 | 0.322
SW 900 |  |  |  |  |  |  |  |  |  |  |  |  |  |  |  | 0.669 | 0.543 | 0.585 | 0.763 | 0.536
LOU-NH91 | 0.529 | 0.906 | 0.527 | 0.555 | 0.377 | 0.507 | 0.537 | 0.471 | 0.389 | 0.498 | 0.726 | 0.76 | 0.704 | 0.747 | 0.728 | 0.55 | 0.554 | 0.526 | 0.547 | 0.511
HCC-15 | 1.22 | 1.02 | 1.02 | 1.13 | 1.1 | 0.978 | 1.07 | 0.938 | 1.09 | 1 | 0.782 | 0.859 | 0.889 | 0.879 | 0.83 | 0.631 | 0.58 | 0.582 | 0.66 | 0.585
A-427 | 0.964 | 0.937 | 0.906 | 0.93 | 0.695 | 0.991 | 0.945 | 0.856 | 0.968 | 1.09 | 0.833 | 0.838 | 0.927 | 0.857 | 0.882 | 0.647 | 0.65 | 0.609 | 0.642 | 0.804
SW 1573 | 1.23 | 1.05 | 1.15 | 1.15 | 1.01 | 0.958 | 0.995 | 1.16 |  | 0.946 | 0.895 | 0.755 | 0.827 | 0.774 | 0.956 | 0.406 | 0.44 | 0.389 | 0.447 | 0.632
NCI-H2087 | 0.996 | 1.07 | 1.16 | 0.77 | 0.937 | 0.745 | 0.786 | 0.699 | 0.587 | 0.836 | 0.834 | 0.906 | 0.713 | 0.797 | 0.908 | 0.98 | 0.769 | 0.812 | 0.94 | 0.69
LK-2 |  |  |  |  |  |  |  |  |  |  | 0.247 | 0.248 | 0.215 | 0.203 | 0.239 | 0.316 | 0.355 | 0.325 | 0.255 | 0.376
